According to patent US20080249042A1, “All-Trans-Retinol: All-Trans-13,14-Dihydroretinol Saturase and Methods of Its Use” (UNIVERSITY OF WASHINGTON, priority 2004, published 2008):

Legend:
RALDH3 = target: T1, RALDH3 (Mus musculus, UniProt Q9JHW9); experiment: RALDH oxidation assay, transfected HEK-293S homogenate; format: biochemical; conditions: cell homogenate with NAD, NADP, ATP
T1 construct: expressed in transfected cells; host or cells: GnTI-negative HEK-293S, transient; cell homogenate
T1 sequence (Q9JHW9 1-512): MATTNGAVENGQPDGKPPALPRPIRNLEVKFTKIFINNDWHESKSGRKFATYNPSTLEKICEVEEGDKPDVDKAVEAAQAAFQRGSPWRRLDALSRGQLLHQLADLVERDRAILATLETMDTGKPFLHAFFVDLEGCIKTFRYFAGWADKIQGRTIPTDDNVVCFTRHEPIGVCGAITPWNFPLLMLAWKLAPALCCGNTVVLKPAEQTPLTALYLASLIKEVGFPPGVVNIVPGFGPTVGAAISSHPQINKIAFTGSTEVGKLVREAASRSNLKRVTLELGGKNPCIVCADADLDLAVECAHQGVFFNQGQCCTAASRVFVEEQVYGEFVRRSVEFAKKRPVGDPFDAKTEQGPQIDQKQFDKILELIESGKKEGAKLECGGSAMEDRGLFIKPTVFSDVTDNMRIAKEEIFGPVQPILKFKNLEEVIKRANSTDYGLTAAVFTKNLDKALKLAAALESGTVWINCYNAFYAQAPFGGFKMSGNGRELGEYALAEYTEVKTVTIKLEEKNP
Method: (§1) RALDH Oxidation Assay. N-Acetylglucosaminyltransferase I-negative HEK-293S cells, obtained from Dr. G. Khorana (Massachusetts Institute of Technology, Boston) were cultured in Dulbecco's modified Eagle's medium, 10% fetal calf serum and maintained at 37° C., 5% CO2, and 100% humidity. Reeves, et al. Proc. Natl. Acad. Sci. U.S.A. 99:13419-13424, 2002. For RALDH enzyme assays, cells were transiently transfected with RALDH1, -2, -3, or -4 expression constructs using Lipofectamine 2000 (Invitrogen) according to the manufacturer's protocol. After 48 h post-transfection, the cells were collected by scraping and were centrifuged. The cell pellet was washed in 137 mM NaCl, 2.7 mM KCl, and 10 mM phosphate (pH 7.4), resuspended in 50 mM Tris (pH 8.0) containing 250 mM sucrose, and homogenized with the aid of a Dounce homogenizer. Cofactors were added to a final concentration of 5 mM NAD, 5 mM NADP, and 1 mM ATP. An aliquot of the cell lysate was boiled for 10 min at 95° C. to provide the control for the nonenzymatic reaction. Substrates in the form of all-trans-RAL or a mixture of isomers of DRAL were added to the cell lysates at a final concentration of 60 μM. The reactions were allowed to proceed for 2 h at 37° C. with shaking and were stopped by the addition of 2 volumes of CH3CN. […] After each run, the column was washed with mixture B (60% tert-butylmethyl ether, 40% methanol) for 10 min at 1.6 ml/min, followed by re-equilibration in phase A. The elution of RA and DRA isomers was monitored at 340 and 290 nm, respectively. The peaks were identified based on their spectra and coelution with standards. The cell lysate was examined for expression of RALDH1-4 by SDS-PAGE and immunoblotting of the V5 epitope-tagged recombinant protein using an anti-V5 epitope monoclonal antibody (Invitrogen).

RALDH2 = target: T2, RALDH2 (Mus musculus, UniProt Q62148); experiment: as above; format: biochemical; conditions: cell homogenate with NAD, NADP, ATP
T2 construct: The full-length cDNA of RALDH2 (MGC:76772, IMAGE: 30471325), RALDH4 (MGC:46977, IMAGE:4223059), and CYP26A1 (MGC:13860, IMAGE:4210893) mRNA was obtained; expressed in transfected cells; host or cells: GnTI-negative HEK-293S, transient; cell homogenate
T2 sequence (Q62148 1-518): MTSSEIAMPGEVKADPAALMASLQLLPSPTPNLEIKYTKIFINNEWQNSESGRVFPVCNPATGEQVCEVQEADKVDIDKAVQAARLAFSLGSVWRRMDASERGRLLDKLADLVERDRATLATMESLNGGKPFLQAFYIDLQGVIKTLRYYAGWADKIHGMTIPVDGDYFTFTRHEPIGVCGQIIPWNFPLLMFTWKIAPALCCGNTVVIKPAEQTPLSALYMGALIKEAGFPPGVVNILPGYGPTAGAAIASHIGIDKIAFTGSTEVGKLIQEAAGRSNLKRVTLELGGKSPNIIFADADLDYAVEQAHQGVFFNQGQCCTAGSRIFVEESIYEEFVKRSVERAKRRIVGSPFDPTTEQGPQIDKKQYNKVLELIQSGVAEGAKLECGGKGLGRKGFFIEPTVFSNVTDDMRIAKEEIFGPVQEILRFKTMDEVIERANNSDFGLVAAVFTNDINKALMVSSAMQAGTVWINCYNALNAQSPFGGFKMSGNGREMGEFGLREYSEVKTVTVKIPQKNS
Method: as §1

RALDH1 = target: T3, RALDH1 (Mus musculus, UniProt P24549); experiment: as above; format: biochemical; conditions: cell homogenate with NAD, NADP, ATP
T3 construct: expressed in transfected cells; host or cells: GnTI-negative HEK-293S, transient; cell homogenate
T3 sequence (P24549 1-501): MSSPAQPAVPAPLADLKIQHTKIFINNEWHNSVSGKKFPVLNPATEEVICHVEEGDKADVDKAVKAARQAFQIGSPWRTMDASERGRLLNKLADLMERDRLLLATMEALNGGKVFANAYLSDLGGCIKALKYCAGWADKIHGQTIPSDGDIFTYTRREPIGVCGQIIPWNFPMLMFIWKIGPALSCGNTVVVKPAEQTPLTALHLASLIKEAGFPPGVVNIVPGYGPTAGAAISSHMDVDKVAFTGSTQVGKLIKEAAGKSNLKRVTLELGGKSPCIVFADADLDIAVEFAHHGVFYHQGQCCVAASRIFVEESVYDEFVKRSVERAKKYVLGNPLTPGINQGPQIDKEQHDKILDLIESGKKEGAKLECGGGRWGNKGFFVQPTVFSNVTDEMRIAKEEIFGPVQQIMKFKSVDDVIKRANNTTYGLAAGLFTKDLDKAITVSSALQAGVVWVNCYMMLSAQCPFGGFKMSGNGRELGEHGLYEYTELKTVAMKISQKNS
Method: as §1

RALDH4 = target: T4, RALDH4 (Mus musculus, UniProt Q8BH00); experiment: as above; format: biochemical; conditions: cell homogenate with NAD, NADP, ATP
T4 construct: The full-length cDNA of RALDH2 (MGC:76772, IMAGE: 30471325), RALDH4 (MGC:46977, IMAGE:4223059), and CYP26A1 (MGC:13860, IMAGE:4210893) mRNA was obtained; expressed in transfected cells; host or cells: GnTI-negative HEK-293S, transient; cell homogenate
T4 sequence (Q8BH00 1-487): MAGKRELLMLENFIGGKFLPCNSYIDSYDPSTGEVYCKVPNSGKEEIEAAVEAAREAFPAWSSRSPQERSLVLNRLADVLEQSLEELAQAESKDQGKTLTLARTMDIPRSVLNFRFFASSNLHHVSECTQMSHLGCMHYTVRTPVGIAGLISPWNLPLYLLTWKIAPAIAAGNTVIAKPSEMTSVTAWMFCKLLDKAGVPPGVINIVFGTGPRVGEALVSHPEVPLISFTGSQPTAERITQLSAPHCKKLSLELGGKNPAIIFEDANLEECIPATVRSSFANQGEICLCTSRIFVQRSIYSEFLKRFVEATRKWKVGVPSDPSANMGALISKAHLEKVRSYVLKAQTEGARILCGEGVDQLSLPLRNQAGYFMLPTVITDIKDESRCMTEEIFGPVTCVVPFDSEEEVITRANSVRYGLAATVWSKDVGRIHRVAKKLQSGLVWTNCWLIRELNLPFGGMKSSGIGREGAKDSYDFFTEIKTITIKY
Method: as §1

mouse RALDH1 = target: T5, mouse RALDH1 (Mus musculus, UniProt P24549); conditions: cited from earlier work
T5 sequence (P24549 1-501): T3 sequence (P24549 1-501)

mouse RALDH2 = target: T6, mouse RALDH2 (Mus musculus, UniProt Q62148); conditions: cited from earlier work
T6 sequence (Q62148 1-518): T2 sequence (Q62148 1-518)

Compound | Oxidation to the acid by RALDH3 (RALDH3) | Oxidation to the acid by RALDH2 (RALDH2) | Oxidation to the acid by RALDH1 (RALDH1) | Oxidation to the acid by RALDH4 (RALDH4) | Km (mouse RALDH1) [µM] | Km (mouse RALDH2) [µM]
CC(C=CC1=C(C)CCCC1(C)C)=CC=CC(C)CC=O (stereo not drawn) [all-trans-DRAL, 13,14-dihydroretinaldehyde] | efficiently converted | efficiently converted | less efficient | less efficient |  | 
CC1=C(/C=C/C(C)=C/C=C/C(C)=C/C=O)C(C)(C)CCC1 [all-trans-RAL, all-trans-retinal, reference compound] | efficiently converted | efficiently converted | less efficient | less efficient | 11.6 | 0.66
